Columns and labels:
human CaSR = molecular target: T1, human CaSR (Homo sapiens, UniProt P41180); assay: Intracellular Ca2+ (fura-2, F/F0) in HEK293 cells stably expressing human CaSR; type: cell-based; conditions: HEK-CaSR; for CaSR activation (Ca2+i increase) by agonist: 300 nM poly-L-arginine, 1 mM spermine, 10 μg/ml ECP, no response in HEK-0
T1 construct: expressed in transfected cells; control HEK-0 with empty vector
T1 sequence (P41180 20-1078): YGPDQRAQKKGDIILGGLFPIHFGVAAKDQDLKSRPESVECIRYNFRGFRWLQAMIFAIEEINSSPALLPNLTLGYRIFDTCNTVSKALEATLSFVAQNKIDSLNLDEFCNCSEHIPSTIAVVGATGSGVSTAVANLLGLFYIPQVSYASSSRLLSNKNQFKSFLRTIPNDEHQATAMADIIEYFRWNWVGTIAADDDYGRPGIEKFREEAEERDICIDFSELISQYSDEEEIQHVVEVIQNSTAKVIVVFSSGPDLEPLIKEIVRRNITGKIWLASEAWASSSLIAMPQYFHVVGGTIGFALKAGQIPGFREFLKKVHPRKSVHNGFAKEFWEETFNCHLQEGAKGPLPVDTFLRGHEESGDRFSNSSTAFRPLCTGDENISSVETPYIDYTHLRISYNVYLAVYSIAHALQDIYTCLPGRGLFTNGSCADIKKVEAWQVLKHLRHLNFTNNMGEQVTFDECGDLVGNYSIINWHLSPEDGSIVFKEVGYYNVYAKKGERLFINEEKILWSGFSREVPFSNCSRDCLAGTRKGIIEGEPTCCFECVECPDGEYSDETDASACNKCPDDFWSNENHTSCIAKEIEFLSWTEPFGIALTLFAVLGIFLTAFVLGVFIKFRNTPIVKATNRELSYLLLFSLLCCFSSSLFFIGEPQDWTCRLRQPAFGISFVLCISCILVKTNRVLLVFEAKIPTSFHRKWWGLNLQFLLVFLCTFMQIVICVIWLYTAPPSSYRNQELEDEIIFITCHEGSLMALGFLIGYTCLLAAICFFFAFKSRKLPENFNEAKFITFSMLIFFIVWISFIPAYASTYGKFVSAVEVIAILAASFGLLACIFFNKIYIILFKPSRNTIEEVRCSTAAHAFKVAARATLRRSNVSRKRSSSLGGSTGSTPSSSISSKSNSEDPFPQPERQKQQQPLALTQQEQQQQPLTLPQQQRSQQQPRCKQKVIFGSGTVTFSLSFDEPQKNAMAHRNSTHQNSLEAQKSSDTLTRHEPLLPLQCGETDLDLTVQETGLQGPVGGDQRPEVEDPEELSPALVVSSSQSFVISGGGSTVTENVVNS
Method: The structurally unrelated calcilytic NPS2143 also prevents spermine-induced CaSR activation (D). […] Note that ECP serum concentrations in asthmatic subjects are believed to be 30 μg/ml. n=121-487 cells, 3-9 experiments. Data are mean±SEM. Where differences are significant, they are shown above the bars. FIG. 6. Ca^2+o activates the CaSR, an effect which can be prevented by the calcilytic NPS89636. HEK293 cells stably expressing the human CaSR (HEK-CaSR) or transfected with empty vector (HEK-0) were loaded with 4 μM fura-2 AM and exposed to 5 mM Ca^2+o in the absence or presence of the calcilytic, NPS89636 (100 nM). Data are from >3 experiments and 121-386 cells. Significant differences are shown above the bars. […] The ability of a structurally unrelated calcilytic, NPS2143 (1-10 μM), was also tested on spermine-induced Ca^2+i mobilisation in HEK-CaSR. Ca^2+i release was measured as peak/baseline fluorescence (F/F0). Note that ECP serum concentrations in asthmatic subjects increase with disease severity and are believed to reach 30 μg/ml.

[1] = system: mouse intralobular bronchi; conditions: spermine 10 μM-3 mM cumulative, ACh-precontracted to ~50% tone
Method: A. Intralobular bronchi were dissected from wild type C57/Bl6 mice (3-4 month of age), mounted upon a wire myograph and bubbled with 95% O2/5% CO2 in the presence of an extracellular solution containing 1 mM Ca^2+o. […] Data are mean±SEM, n=3. B. Intralobular bronchi were dissected from wild type (sm22α-Cre^−/−/floxed-CaSR^+/+) and CaSR knockout (sm22α-Cre^+/+/floxed-CaSR^+/+) mice and were then mounted on a wire myograph, as described in (A). […] Percentage of contraction (upwards deflection from zero of the relaxation curve) or relaxation (downwards deflection from zero of the relaxation curve) were calculated from the tension data. Data are mean±SEM, n=3 per genotype. […] Second/third order intralobular bronchi were dissected from the lung left lobe of WT or CaSR KO mice, mounted in small vessel myograph using stainless steel wires (d=40 micrometers) in a Krebs' solution bubbled with 95% O2/5% CO2. Bronchi were left to settle at 37° C. for 30 min, then gradually stretched to reach 2 mN of passive tension. After 30 min of equilibration time, the reactivity of the bronchi was tested by addition of 40 mM KCl to the bath. […] Data are shown as mean±SEM percentage change from baseline, where upwards deflection from zero represents contraction, whilst downwards deflection from zero of the relaxation curve represents relaxation. […] WT: n=6; KO: n=7. *p<0.05; **p<0.01.

CaSR in human ASM cells = molecular target: T2, CaSR in human ASM cells (Homo sapiens, UniProt P41180); assay: Intracellular Ca2+ signalling (Fura-2) in primary human airway smooth muscle cells; type: cell-based; conditions: spermine 0.1-3 mM; ECPs 1-10 micrograms/ml
T2 construct: endogenous in cells; host or cells: primary human airway smooth muscle cells explanted from bronchial biopsies
T2 sequence (P41180 20-1078): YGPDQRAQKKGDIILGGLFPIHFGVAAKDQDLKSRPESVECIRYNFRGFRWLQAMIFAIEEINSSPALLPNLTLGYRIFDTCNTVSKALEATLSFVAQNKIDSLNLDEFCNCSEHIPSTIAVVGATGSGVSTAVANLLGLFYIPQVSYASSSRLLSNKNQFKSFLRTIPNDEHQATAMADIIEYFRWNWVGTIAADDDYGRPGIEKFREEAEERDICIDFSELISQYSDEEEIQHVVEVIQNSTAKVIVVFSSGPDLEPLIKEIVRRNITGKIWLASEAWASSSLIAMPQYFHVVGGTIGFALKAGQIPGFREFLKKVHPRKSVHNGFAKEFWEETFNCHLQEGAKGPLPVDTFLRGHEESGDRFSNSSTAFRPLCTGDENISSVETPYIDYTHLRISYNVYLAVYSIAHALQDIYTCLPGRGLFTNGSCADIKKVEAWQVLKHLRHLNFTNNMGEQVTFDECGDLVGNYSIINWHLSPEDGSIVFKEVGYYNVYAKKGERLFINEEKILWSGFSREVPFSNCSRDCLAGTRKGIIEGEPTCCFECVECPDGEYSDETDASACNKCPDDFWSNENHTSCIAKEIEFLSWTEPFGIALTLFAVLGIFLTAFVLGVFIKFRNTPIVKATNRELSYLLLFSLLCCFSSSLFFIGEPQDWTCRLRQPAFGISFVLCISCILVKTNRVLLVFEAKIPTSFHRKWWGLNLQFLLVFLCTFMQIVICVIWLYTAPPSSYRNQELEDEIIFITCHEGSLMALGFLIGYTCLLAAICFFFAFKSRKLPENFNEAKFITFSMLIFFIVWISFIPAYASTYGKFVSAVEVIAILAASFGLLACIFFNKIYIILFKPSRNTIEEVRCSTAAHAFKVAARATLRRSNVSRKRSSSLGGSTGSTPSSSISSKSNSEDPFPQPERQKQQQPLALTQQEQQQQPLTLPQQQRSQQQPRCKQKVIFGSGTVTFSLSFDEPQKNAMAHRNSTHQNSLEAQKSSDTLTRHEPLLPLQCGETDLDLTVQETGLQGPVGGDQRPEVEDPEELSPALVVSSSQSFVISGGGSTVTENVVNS
Method: Human ASM cells, loaded with Fura-2 AM, show elevation of [Ca^2+]i (F/F0) when exposed to increased [Ca^2+]o (A, n=7) or spermine (B, n=35; mean±SEM). […] In the presence of 5 mM [Ca^2+]o (saturating for CaSR, see A), the response to ECP, but not to BK, is ablated, consistent with CaSR activation by ECP. D), transfection of a “dominant negative” CaSR (CaSR DN) prevents spermine-dependent increase in [Ca^2+]i in human ASM cells, an effect which cannot be seen in MOCK-transfected cells.
Effects of Polycations in Human ASM Cells In Vitro
Once primary human airway smooth muscle cells cell cultures were established at 80-90% confluence using the protocol described above, the endogenous CaSR was activated by exposing these cells to pathophysiologically relevant concentrations of ECPs (1-10 micrograms/ml), spermine (0.1-3 mM) and Ca^2+o (1-5 mM) to determine the effects on intracellular Ca^2+i signalling (using the Ca^2+-sensitive fluorescent dye, Fura-2).

[2] = system: mouse intralobular bronchi; conditions: 300 μM spermine, 15 min pre-treatment
Method: A. Intralobular bronchi were dissected from wild type C57/Bl6 mice (3-4 month of age), mounted upon a wire myograph and bubbled with 95% O2/5% CO2 in the presence of an extracellular solution containing 1 mM Ca^2+o. […] Data are mean±SEM, n=3. B. Intralobular bronchi were dissected from wild type (sm22α-Cre^−/−/floxed-CaSR^+/+) and CaSR knockout (sm22α-Cre^+/+/floxed-CaSR^+/+) mice and were then mounted on a wire myograph, as described in (A). […] Percentage of contraction (upwards deflection from zero of the relaxation curve) or relaxation (downwards deflection from zero of the relaxation curve) were calculated from the tension data. Data are mean±SEM, n=3 per genotype. […] Second/third order intralobular bronchi were dissected from the lung left lobes of WT or KO mice, mounted in small vessel myograph using stainless steel wires (d=40 micrometers) and maintained in a Krebs solution bubbled with 95% O2/5% CO2. Bronchi were left to settle at 37° C. for 30 min, then they were gradually stretched to reach 2 mN of passive tension. After 30 min equilibration time, reactivity of the bronchi was tested by addition of 40 mM KCl to the bath. […] Data are shown as mean±SEM percentage of contraction normalized to the maximal contraction in control. […] Bronchi were left to settle at 37° C. for 30 min, then they were gradually stretched to reach 2 mN of passive tension. […]

BalbC mice = assay: Polycation-induced bronchial hyper-reactivity (Penh, plethysmography) in methacholine-challenged conscious mice; type: in vivo, mouse; conditions: nebulised poly-L-arginine 3 μM, 1 hour; conscious BalbC mice
Method: FIG. 5. […] prevent polycation-evoked BHR in methacholine-challenged mice. […] After the treatment, animals were placed in plethysmography chambers (Buxco, USA), allowed to settle for 10 minutes, and then they were challenged with methacholine (MCh, 0.1-10 mg/ml). Responses to methacholine obtained from the animals that have not received any treatments are shown in black symbols. From our previous estimates, 1-5% of the nebulised drug reaches the lung epithelium. […] FIG. 12. […] Male BalbC mice ( 25 g) were purchased from Harlan 1 week before the experimental protocols were performed. […] On the day of the experiment, the body weight of each mouse was recorded and mice were allowed to acclimatise to the chamber for at least 10 min before recordings were made. Then, respiratory activity was recorded for 5 min, to establish baseline value for Penh. […] Data were recorded for 3 minutes after each aerosol administration. The Penh values at each MCh concentration were averaged and expressed as a proportion of baseline Penh (Penh before treatment). […] The Penh values at each MCh concentration were averaged and expressed as a proportion of that day's baseline Penh (Penh after treatment). […] Effect of Polycations and of the Calcilytic NPS89636 on Bronchial Hyper-Reactivity in Unrestrained, Conscious Mice In Vivo Baseline airway hyper-responsiveness was measured by plethysmography. […]

Molecule: NCCCNCCCCNCCCN [spermine]
- CaSR activation (Ca2+i increase) by agonist (human CaSR): responds
- Direct bronchoconstriction, CaSR KO bronchi ([1]; knock-out mice): not in the intralobular bronchi of knock-out mice
- Direct bronchoconstriction, WT bronchi ([1]; wild-type mice): directly evokes bronchoconstriction
- Increase in Ca2+i evoked by agonist in human ASM cells (CaSR in human ASM cells): evoke increases in Ca^2+i
- Effect on ACh-induced contraction, CaSR KO bronchi ([2]; CaSR knock-out mice): not seen
- Effect on ACh-induced contraction, WT bronchi ([2]; wild-type mice): increases the response to acetylcholine-mediated contraction

Molecule: CC(C)(Cc1ccc2ccccc2c1)NC[C@@H](O)COc1cccc(Cl)c1C#N.Cl [NPS2143, reference compound]
- Effect of calcilytic on spermine-induced CaSR activation (Ca2+i mobilisation) (human CaSR; 1-10 μM calcilytic): prevented CaSR activation by spermine

Molecule: poly-L-arginine [reference compound]
- CaSR activation (Ca2+i increase) by agonist (human CaSR): responds
- Effect on response to methacholine (Penh) (BalbC mice): significantly enhanced

B1: ECPs: eosinophil cationic protein, novel agonist at the human CaSR (protein, UniProt P12724 28-160, looked up)
Eosinophil cationic protein: RPPQFTRAQWFAIQHISLNPPRCTIAMRAINNYRWRCKNQNTFLRTTFANVVNVCGNQSIRCPHNRTLNNCHRSRFRVPLLHCDLINPGAQNISNCTYADRPGRRFYVVACDNRDPRDSPRYPVVPVHLDTTI
- CaSR activation (Ca2+i increase) by agonist (human CaSR): agonists at the CaSR
- Increase in Ca2+i evoked by agonist in human ASM cells (CaSR in human ASM cells): evoke increases in Ca^2+i
